# Measurements reported in US5488035A (priority 1991, dated 1996).
# Where two headings read alike, the source gives them in different places. Bridge positions count the residues as written; N and C are the ends. Peptide text beside a SMILES is read from it.
# What was measured:
# Type in all cases: cell-based
# [1] = tested on: SSC 002 (Sclerotinia sclerotiorum); assay: Minimum inhibitory concentration; conditions: MIC Comparisons
# Source text: (§1) Decreasing tested concentrations of tachyplesin were against the preceding four organisms plus Fusarium moniliforme and Sclerotinia sclerotiorum to determine the minimum inhibitory concentration, and this was compared with other antimicrobial compounds.
# [2] = tested on: FMO 001 (Fusarium moniliforme); assay: Minimum inhibitory concentration; conditions: MIC Comparisons
# Source text: as §1
# [3] = tested on: AFL 001 (Aspergillus flavus); assay: Minimum inhibitory concentration; conditions: for MIC AFL 001: MIC Comparisons; for Dependence of MIC on buffer pH, AFL 001: buffer pHs of from 5.0 to 8.0
# Method: Decreasing tested concentrations of tachyplesin were against the preceding four organisms plus Fusarium moniliforme and Sclerotinia sclerotiorum to determine the minimum inhibitory concentration, and this was compared with other antimicrobial compounds. Results were as follows:
# The MICs of tachyplesin, defensin and hordothionin (μg/ml) were measured against FGR 008 and AFL 001 across a range of buffer pHs and ionic strengths to determine their suitability as plant antimicrobials under varying conditions.
# [4] = tested on: SSC ascospores (Sclerotinia sclerotiorum); assay: Antifungal activity score, decreasing concentrations; conditions: Example 2, scale 0-4
# Method: (§2) The tachyplesin was used at a concentration of 100 μg/ml as determined by absorption spectrum was screened against four common plant pathogens in both crude and oxidized forms. Antifungal activity was scored on a scale of 0 to 4, with 0 being no inhibition observed relative to a water control, and 4 being complete inhibition. Two reps were done for each treatment. Results were as follows:
# as §1
# [5] = tested on: Aspergillus flavus, isolate 1 (AFL 001); assay: as above; conditions: Example 2, scale 0-4
# Method: as §2, §1
# [6] = tested on: SSC 002 (Sclerotinia sclerotiorum); assay: as above; conditions: Example 2, scale 0-4
# Method: as §2, §1
# [7] = tested on: FMO 001 (Fusarium moniliforme); assay: as above; conditions: Example 2, scale 0-4
# Method: as §2, §1
# [8] = tested on: Fusarium graminearum, isolate 8 (FGR 008); conditions: Example 2, scale 0-4
# [9] = tested on: Sclerotinia trifoliorum, isolate 1; assay: Antifungal activity score; conditions: Example 1, 100 μg/ml
# Method: as §2, with “treatment.” for “treatment. Results were as follows:”
# [10] = tested on: Fusarium graminearum, isolate 5 (FGR 005); conditions: for Score (antifungal activity), Fusarium graminearum, isolate 5: Example 1, 100 μg/ml; for Score FGR 005: Example 2, scale 0-4
# [11] = tested on: FGR 008 (Fusarium graminearum)
# [12] = tested on: FGR 005 (Fusarium graminearum); conditions: MIC Comparisons
compound,measurement,setting,value
CMIII,MIC SSC 002,[1]; value before parentheses,24 mg/L
same,MIC SSC 002,[1]; value in parentheses,6 µM
same,MIC FMO 001,[2]; value before parentheses,18.2 mg/L
same,MIC FMO 001,[2]; value in parentheses,4.6 µM
same,MIC AFL 001,[3]; value before parentheses,60 mg/L
same,MIC AFL 001,[3]; value in parentheses,15 µM
tachyplesin [tachyplesin oxidized],Score SSC ascospores,[4]; 1.56 μg/ml (0.7 μM),0.0
same,Score SSC ascospores,[4]; 3.13 μg/ml (1.4 μM),0.0
same,Score SSC ascospores,[4]; 6.25 μg/ml (2.8 μM),3.0
same,Score SSC ascospores,[4]; 12.5 μg/ml (5.6 μM),4.0
same,Score SSC ascospores,[4]; 25 μg/ml (11.1 μM),4.0
same,Score SSC ascospores,[4]; 50 μg/ml (22.2 μM),4.0
same,Score SSC ascospores,[4]; 100 μg/ml (44.4 μM),4.0
same,Score AFL 001,[5]; 1.56 μg/ml (0.7 μM),0.0
same,Score AFL 001,[5]; 3.13 μg/ml (1.4 μM),0.0
same,Score AFL 001,[5]; 6.25 μg/ml (2.8 μM),1.0
same,Score AFL 001,[5]; 12.5 μg/ml (5.6 μM),1.5
same,Score AFL 001,[5]; 25 μg/ml (11.1 μM),2.75
same,Score AFL 001,[5]; 50 μg/ml (22.2 μM),3.75
same,Score AFL 001,[5]; 100 μg/ml (44.4 μM),3.75
same,Score SSC 002,[6]; 1.56 μg/ml (0.7 μM),0.0
same,Score SSC 002,[6]; 3.13 μg/ml (1.4 μM),0.0
same,Score SSC 002,[6]; 6.25 μg/ml (2.8 μM),0.0
same,Score SSC 002,[6]; 12.5 μg/ml (5.6 μM),4.0
same,Score SSC 002,[6]; 25 μg/ml (11.1 μM),4.0
same,Score SSC 002,[6]; 50 μg/ml (22.2 μM),4.0
same,Score SSC 002,[6]; 100 μg/ml (44.4 μM),4.0
same,Score FMO 001,[7]; 1.56 μg/ml (0.7 μM),0.0
same,Score FMO 001,[7]; 3.13 μg/ml (1.4 μM),0.5
same,Score FMO 001,[7]; 6.25 μg/ml (2.8 μM),1.0
same,Score FMO 001,[7]; 12.5 μg/ml (5.6 μM),2.5
same,Score FMO 001,[7]; 25 μg/ml (11.1 μM),4.0
same,Score FMO 001,[7]; 50 μg/ml (22.2 μM),4.0
same,Score FMO 001,[7]; 100 μg/ml (44.4 μM),4.0
same,Score FGR 008,[8]; 1.56 μg/ml (0.7 μM),0.0
same,Score FGR 008,[8]; 3.13 μg/ml (1.4 μM),0.0
same,Score FGR 008,[8]; 6.25 μg/ml (2.8 μM),2.0
same,Score FGR 008,[8]; 12.5 μg/ml (5.6 μM),4.0
same,Score FGR 008,[8]; 25 μg/ml (11.1 μM),4.0
same,Score FGR 008,[8]; 50 μg/ml (22.2 μM),4.0
same,Score FGR 008,[8]; 100 μg/ml (44.4 μM),4.0
same,"Score (antifungal activity), Sclerotinia trifoliorum, isolate 1",[9],4.0
same,"Score (antifungal activity), Fusarium graminearum, isolate 5",[10],4.0
same,Score FGR 005,[10]; 1.56 μg/ml (0.7 μM),0.0
same,Score FGR 005,[10]; 3.13 μg/ml (1.4 μM),0.0
same,Score FGR 005,[10]; 6.25 μg/ml (2.8 μM),2.25
same,Score FGR 005,[10]; 12.5 μg/ml (5.6 μM),3.5
same,Score FGR 005,[10]; 25 μg/ml (11.1 μM),4.0
same,Score FGR 005,[10]; 50 μg/ml (22.2 μM),4.0
same,Score FGR 005,[10]; 100 μg/ml (44.4 μM),4.0
hordothionin,MIC SSC 002,[1]; value before parentheses,30 mg/L
same,MIC SSC 002,[1]; value in parentheses,6 µM
same,MIC FMO 001,[2]; value before parentheses,45 mg/L
same,MIC FMO 001,[2]; value in parentheses,9 µM
same,"Dependence of MIC on buffer pH, FGR 008",[11]; buffer pHs of from 5.0 to 8.0,None of the antimicrobials showed a discernible trend or optimum
same,MIC FGR 005,[12]; value before parentheses,5 mg/L
same,MIC FGR 005,[12]; value in parentheses,1 µM
same,MIC AFL 001,[3]; value before parentheses,15 mg/L
same,MIC AFL 001,[3]; value in parentheses,3 µM
same,"Dependence of MIC on buffer pH, AFL 001",[3],None of the antimicrobials showed a discernible trend or optimum
tachyplesin [tachyplesin crude],Score SSC ascospores,[4]; 1.56 μg/ml (0.7 μM),0.0
same,Score SSC ascospores,[4]; 3.13 μg/ml (1.4 μM),0.0
same,Score SSC ascospores,[4]; 6.25 μg/ml (2.8 μM),0.0
same,Score SSC ascospores,[4]; 12.5 μg/ml (5.6 μM),4.0
same,Score SSC ascospores,[4]; 25 μg/ml (11.1 μM),4.0
same,Score SSC ascospores,[4]; 50 μg/ml (22.2 μM),4.0
same,Score SSC ascospores,[4]; 100 μg/ml (44.4 μM),4.0
same,Score AFL 001,[5]; 1.56 μg/ml (0.7 μM),0.0
same,Score AFL 001,[5]; 3.13 μg/ml (1.4 μM),0.0
same,Score AFL 001,[5]; 6.25 μg/ml (2.8 μM),0.0
same,Score AFL 001,[5]; 12.5 μg/ml (5.6 μM),1.0
same,Score AFL 001,[5]; 25 μg/ml (11.1 μM),1.5
same,Score AFL 001,[5]; 50 μg/ml (22.2 μM),3.25
same,Score AFL 001,[5]; 100 μg/ml (44.4 μM),3.5
same,Score SSC 002,[6]; 1.56 μg/ml (0.7 μM),0.0
same,Score SSC 002,[6]; 3.13 μg/ml (1.4 μM),0.0
same,Score SSC 002,[6]; 6.25 μg/ml (2.8 μM),0.0
same,Score SSC 002,[6]; 12.5 μg/ml (5.6 μM),1.0
same,Score SSC 002,[6]; 25 μg/ml (11.1 μM),4.0
same,Score SSC 002,[6]; 50 μg/ml (22.2 μM),4.0
same,Score SSC 002,[6]; 100 μg/ml (44.4 μM),4.0
same,Score FMO 001,[7]; 1.56 μg/ml (0.7 μM),0.0
same,Score FMO 001,[7]; 3.13 μg/ml (1.4 μM),0.0
same,Score FMO 001,[7]; 6.25 μg/ml (2.8 μM),0.5
same,Score FMO 001,[7]; 12.5 μg/ml (5.6 μM),1.25
same,Score FMO 001,[7]; 25 μg/ml (11.1 μM),3.75
same,Score FMO 001,[7]; 50 μg/ml (22.2 μM),4.0
same,Score FMO 001,[7]; 100 μg/ml (44.4 μM),4.0
same,Score FGR 008,[8]; 1.56 μg/ml (0.7 μM),0.0
same,Score FGR 008,[8]; 3.13 μg/ml (1.4 μM),0.0
same,Score FGR 008,[8]; 6.25 μg/ml (2.8 μM),0.0
same,Score FGR 008,[8]; 12.5 μg/ml (5.6 μM),3.75
same,Score FGR 008,[8]; 25 μg/ml (11.1 μM),4.0
same,Score FGR 008,[8]; 50 μg/ml (22.2 μM),4.0
same,Score FGR 008,[8]; 100 μg/ml (44.4 μM),4.0
same,"Score (antifungal activity), Sclerotinia trifoliorum, isolate 1",[9],4.0
same,"Score (antifungal activity), Fusarium graminearum, isolate 5",[10],4.0
same,Score FGR 005,[10]; 1.56 μg/ml (0.7 μM),0.0
same,Score FGR 005,[10]; 3.13 μg/ml (1.4 μM),0.0
same,Score FGR 005,[10]; 6.25 μg/ml (2.8 μM),1.0
same,Score FGR 005,[10]; 12.5 μg/ml (5.6 μM),3.0
same,Score FGR 005,[10]; 25 μg/ml (11.1 μM),4.0
same,Score FGR 005,[10]; 50 μg/ml (22.2 μM),4.0
same,Score FGR 005,[10]; 100 μg/ml (44.4 μM),4.0
"CC[C@H](C)[C@@H]1NC(=O)CNC(=O)[C@H](CCCNC(=N)N)NC(=O)[C@H](Cc2ccc(O)cc2)NC(=O)[C@@H]2CSSC[C@H](NC1=O)C(=O)N[C@@H](Cc1ccc(O)cc1)C(=O)N[C@@H](CCCNC(=N)N)C(=O)N[C@@H](CCCNC(=N)N)C(=O)N[C@H](C(=O)N[C@@H](CCCNC(=N)N)C(=O)O)CSSC[C@H](NC(=O)[C@H](Cc1c[nH]c3ccccc13)NC(=O)[C@@H](N)CCCCN)C(=O)N[C@@H](Cc1ccccc1)C(=O)N[C@@H](CCCNC(=N)N)C(=O)N[C@@H](C(C)C)C(=O)N2 [tachyplesin] (H-KWCFRVCYRGICYRRCR-OH; disulfide 3-16, 7-12; N-terminus assumed)",MIC SSC 002,[1]; value before parentheses,12.5 mg/L
same,MIC SSC 002,[1]; value in parentheses,5.6 µM
same,MIC FMO 001,[2]; value before parentheses,6.25 mg/L
same,MIC FMO 001,[2]; value in parentheses,2.8 µM
same,"Dependence of MIC on buffer pH, FGR 008",[11],None of the antimicrobials showed a discernible trend or optimum
same,MIC AFL 001,[3]; value before parentheses,6.25 mg/L
same,MIC AFL 001,[3]; value in parentheses,2.8 µM
same,"Dependence of MIC on buffer pH, AFL 001",[3],None of the antimicrobials showed a discernible trend or optimum
